# Test results as given in patent US20240059695A1, “SUBSTITUTED IMIDAZO[1,5-b]PYRIDAZINE COMPOUNDS AS KINASE INHIBITORS AND USE THEREOF” (IMPACT THERAPEUTICS (SHANGHAI), INC, priority 2020, published 2024).
# Columns and labels:
# [1] = tested on: human colon cancer LoVo cell; test: MTT proliferation assay, LoVo; format: cell-based; conditions: Homo sapiens, LoVo, 96 h, MTT, 4 days; read-out: IC50 (nM), proliferation of LoVo cell
# Description: The cells were seeded into 96-well cell culture plate with a density of 2000/4000 cells per well and incubated overnight in a 5% CO2 incubator at 37° C. […] 5 μL diluent of each concentration was added to 120 μL of medium (25 times diluted) and mixed by shaking. The overnight cell plates were taken and the culture medium was removed, 195 μL of fresh medium was added to each well, and 5 μL of diluted medium containing the corresponding concentration of the test compound was added respectively (the final concentration of DMSO is 1%), and the culture plate was then placed in a 5% CO2 incubator at 37° C. for 4 days. After removing the original solution, […] of fresh serum-free DMEM medium containing MTT (0.5 mg/mL) was added to each well, the culture was continued. […] Cell viability (%)=(ODcompound−ODbackground)/ODDMSO−ODbackground)×100. GraphPad Prism 6.0 was used to analyze the data. The inhibitory activity of compounds on cell proliferation was plotted based on cell viability and the logarithm of compound concentration. The IC5.0 value was fitted by a sigmoidal dose response curve equation Y=100/(1+10^(LogC-LogIC50)), wherein C was the concentration of compound.
# [2] = Pharmacokinetics following single oral administration to mice; format: in vivo; conditions: mouse, CD-1 (ICR) mice, gavage 10 mg/kg, 0.5% methylcellulose/water suspension, plasma
# Description: The compound of the present invention was formulated into a 0.5% methylcellulose/water uniform suspension, and was administered to CD-1 (ICR) mice by gavage at 10 mg/kg. Plasma samples were collected at 8 time points of 0.250, 0.500, 1.00, 2.00, 4.00, 6.00, 8.00 and 24.0 hours post-dose. Concentrations of the compound were determined by LC-MS/MS method.
smiles,measurement,setting,value
"Cc1nc(-c2ccn[nH]2)n2nc(N3CCOC[C@H]3C)cc(-c3ccnn3C)c12 [Example 1, (R)-3-methyl-4-(5-methyl-4-(1-methyl-1H-pyrazol-5-yl)-7-(1H-pyrazol-5-yl)imidazo[1,5-b]pyridazin-2-yl)morpholine]",IC50,[1],26.7 nM
same,AUC(0-inf),[2],98500 ng·h/mL
same,AUC(0-t),[2],98500 ng·h/mL
same,Cmax,[2],9340 ng/mL
same,half-life,[2],1.64 h
